From patent US20170312681A1, “PROCESS AND APPARATUS FOR SEPARATING ENTRAINED AMINES FROM A GAS STREAM” (Carbonoro B.V., priority 2014, published 2017)

Assay: amine content of the aqueous phase after heat-induced phase separation of an aqueous MCA/DMCA mixture
Details: 3 M MCA:DMCA 1:3 wt./wt. in water
Procedure: The phases were separated and the aqueous phase was analysed for determining the amine content.

## CNC1CCCCC1 [MCA, N-methylcyclohexylamine]
Heated 24 h at 40 ° C.
  MCA in aqueous phase: 6940 mg/L
Heated 24 h at 50 ° C.
  MCA in aqueous phase: 5630 mg/L
Heated 24 h at 60 ° C.
  MCA in aqueous phase: 5090 mg/L
Heated 24 h at 70 ° C.
  MCA in aqueous phase: 4520 mg/L
